According to ChEMBL document CHEMBL3390831, “Design, synthesis, and structureactivity relationships of indole-3-carboxamides as novel water soluble cannabinoid CB1 receptor agonists” (Medchemcomm, 2010):

Tests used:
[1] = Aqueous solubility of the compound in phosphate buffered saline at pH 6.7 by shake-flask method; type: physicochemical
[2] = Aqueous solubility of the compound in citrate buffer at pH 5 by shake-flask method; type: physicochemical
Cannabinoid receptor 1 = Cannabinoid receptor 1 (Homo sapiens, UniProt P21554)
Description: Agonist activity at human cannabinoid CB1 receptor expressed in CHO cells co-expressing AP-1 response element after 5 hrs by luciferase reporter gene assay

[3] = Aqueous solubility of the compound in phosphate buffered saline at pH 7.1 by shake-flask method; type: physicochemical
[4] = Aqueous solubility of the compound in phosphate buffered saline at pH 7.4 by shake-flask method; type: physicochemical

Sequence of Cannabinoid receptor 1 (P21554 whole entry): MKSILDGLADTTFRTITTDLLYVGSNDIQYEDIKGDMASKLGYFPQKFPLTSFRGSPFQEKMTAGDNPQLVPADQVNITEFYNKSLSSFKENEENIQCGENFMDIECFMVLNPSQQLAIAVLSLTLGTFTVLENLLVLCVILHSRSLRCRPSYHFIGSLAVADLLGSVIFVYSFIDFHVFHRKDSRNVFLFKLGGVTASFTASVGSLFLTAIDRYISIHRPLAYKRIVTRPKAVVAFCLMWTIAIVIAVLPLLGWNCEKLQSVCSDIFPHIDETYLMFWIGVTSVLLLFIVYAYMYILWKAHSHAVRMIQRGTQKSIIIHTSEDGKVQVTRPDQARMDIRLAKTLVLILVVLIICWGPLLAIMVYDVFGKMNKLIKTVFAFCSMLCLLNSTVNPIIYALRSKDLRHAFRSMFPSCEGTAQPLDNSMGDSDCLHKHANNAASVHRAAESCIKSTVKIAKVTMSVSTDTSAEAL

SMILES	EC50 (Cannabinoid receptor 1)	also measured
CCN1CCN(C(=O)c2cn(CC3CCCCC3)c3c(OC)cccc23)CC1.O=C(O)/C=C\C(=O)O	–	solubility thermodynamic [1]: 216 µg/mL; solubility thermodynamic [2]: 3400 µg/mL
CCN1CCN(C(=O)c2cn(CCN3CCOCC3)c3c(OC)cccc23)CC1	> 3160 nM	–
Cc1ccc2c(c1)c(C(=O)N1CCN(C)CC1)cn2CC1CCCCC1	2000 nM	–
O=C(N/N=C1\C(=O)N(Cc2ccccc2)c2ccccc21)c1ccccc1	631 nM	–
CCN1CCN(C(=O)c2cn(CC3CCCCC3)c3ccc(OC)cc23)CC1	> 3160 nM	–
CCN1CCN(C(=O)c2cn(CC3CCCCC3)c3c(Cl)cccc23)CC1	501 nM	–
COc1cccc2c(C(=O)N3CCN(C)[C@H](C)C3)cn(CC3CCCCC3)c12.Cl	126 nM	solubility thermodynamic [3]: 88 µg/mL; solubility thermodynamic [2]: 2860 µg/mL
CCN1CCN(C(=O)c2cn(CC3CCCCC3)c3cc(Br)ccc23)CC1	1000 nM	–
CCN1CCN(C(=O)c2cn(CC3CCCCC3)c3ccc(Cl)cc23)CC1	1260 nM	–
CCN1CCN(C(=O)c2cn(CC3CCCCC3)c3c(C)cccc23)CC1	200 nM	–
CCN1CCN(C(=O)c2cn(CC3CCCCC3)c3c(OC)cccc23)C[C@H]1C.Cl	631 nM	solubility thermodynamic [3]: 74 µg/mL; solubility thermodynamic [2]: > 4000 µg/mL
O=C(NCc1ccccc1)c1cn(CC2CCCCC2)c2ccccc12	63.1 nM	–
CCN1CCN(C(=O)c2cn(CC3CCCCC3)c3cc(OC)ccc23)CC1	158 nM	–
Cc1ccc2c(C(=O)N3CCN(C)CC3)cn(CC3CCCCC3)c2c1	316 nM	–
CCN1CCN(C(=O)c2cn(CC3CCCCC3)c3cc(F)ccc23)CC1	251 nM	–
CS(=O)(=O)O.O=C(Cc1ccccc1)N/N=C1\C(=O)N(CC2CCCCC2)c2cc(OCCN3CCOCC3)ccc21	–	solubility thermodynamic [4]: < 500 µg/mL
CCN1CCN(C(=O)c2cn(CC3CCCCC3)c3ccc(F)cc23)CC1	501 nM	–
